According to publication PMC7693334, “Retrospective assessment of rat liver microsomal stability at NCATS: data and QSAR models” (Scientific Reports, 2020):

Assay: High-throughput single time point substrate depletion microsomal stability assay
Assay type: in vitro ADME
Conditions: Sprague-Dawley, control compounds, mean ± S.D across 600 plates, 0.5 mg/mL rat microsomal protein, 1.0 μM drug, NADPH regeneration system, pH 7.4, 37 °C, 15 min, t1/2 capped at 30 min
Description: Microsomal stability of the test articles was determined in a high-throughput format using the substrate depletion method. […] Sprague-Dawley was chosen because it is the most common strain used in drug discovery. Experiments were performed using a Freedom Evo 200 automated platform with a 96-channel (MCA96) head with EVOware software (version 3.2) (Tecan Inc., Männedorf, Switzerland). The system also includes an Inheco heating block and cooling block (Inheco, Munich, Germany). […] The assay incubation system consisted of 0.5 mg/mL of rat microsomal protein, 1.0 μM drug concentration, and NADPH regeneration system (containing 0.650 mM NADP + , 1.65 mM glucose 6-phosphate, 1.65 mM MgCl2, and 0.2 unit/mL G6PDH) in 100 mM phosphate buffer at pH 7.4. The incubation was carried out at 37 °C for 15 min. The reaction was quenched by adding 555 μL of acetonitrile containing 0.28 μM albendazole, an internal standard. After a 20-min centrifugation at 3000 rpm at 4 °C, 30 μL of the supernatant was transferred to an analysis plate and was diluted fivefold using 1:2 v/v acetonitrile/water. […] The raw data set was preprocessed to generate training and test data for the purpose of building and validating prediction models. […] Detailed steps involved in preprocessing the raw data set are provided in the supplementary information (Table S1).

## Cc1cc(=O)n(-c2ccccc2)n1C [Antipyrine, antipyrine]
microsomes
  half-life at 1 μM: > 30 min

## O=C1CC2(CCCC2)CC(=O)N1CCCCN1CCN(c2ncccn2)CC1 [Buspirone, buspirone]
Rat liver microsomes
  half-life at 1 μM: 3.8 ± 1.1 min

## NC(=O)N1c2ccccc2C=Cc2ccccc21 [Carbamazepine, carbamazepine]
Rat liver microsomes
  half-life at 1 μM: > 30 min

## O=C(O)Cc1ccccc1Nc1c(Cl)cccc1Cl [Diclofenac, diclofenac]
Rat liver microsomes
  half-life at 1 μM: 11.4 ± 2.6 min

## CC(C)NCC(O)COc1cccc2ccccc12 (centres unmarked) [Propranolol, propranolol]
Rat liver microsomes
  half-life at 1 μM: 1.4 ± 0.3 min
